This passage reports melting point results from a melting point compilation (Tetko et al.; mined from patent text by program, amines drawn as free bases though some values may be those of a salt).

By melting point is commonly meant the temperature, or range, at which the solid turns liquid. `COC(=O)CCCc1cc2nc(Cl)ccc2n1S(=O)(=O)c1cccc2nc(C)sc12` yielded a melting point of 138 °C.
In turn, `CCOC(=O)c1cnc2c(SC(=O)N3CCN(Cc4ccc5c(c4)OCO5)CC3)cccn2c1=O` had a melting point of 159 to 161 °C.
For `CCOC(=O)C1Sc2ccccc2C1=O` (configuration not stated), the melting point lay within 138 to 140 °C.
Turning to `CSC(=O)NCc1c[nH]c2ccccc12`, the melting point was in the range of 110 to 111 °C.
Then `CC(C)(C)[Si](C)(C)Oc1ccccc1-c1cc(-c2ccc([N+](=O)[O-])cc2)c(C#N)c(N)n1`, with 168 to 169 °C.
With `Cc1nnc(-c2ccc3occ(-c4ccc(OCCS(C)(=O)=O)cc4)c3c2)o1`, the melting point was 132 to 133 °C.
In the case of `COc1cc2nc(N)nc(-c3cccc(O)c3)c2cc1OC`, the melting point lay in the range of 256 to 258 °C.
The molecule `CC(C)(C(=O)O)c1ccc2cc(O)ccc2c1` registered a melting point of 208 to 210 °C.
Take `CNS(=O)(=O)c1ccc([N+](=O)[O-])cc1[N+](=O)[O-]`: the melting point was found to be 155 °C.
The molecule `Cc1oc(-c2ccccc2)nc1CCOc1ccc(CC(C)(C(=O)O)n2ccc(Br)c2)cc1` (configuration not stated) had a melting point of 158 to 159 °C.
In the case of `COc1ccc2c(c1)C(=NO)c1c-2cnc2ccccc12`, the melting point is 270 to 271 °C.
For the molecule `COc1cc2c(cc1OC)C(=C(C#N)SCC(CN1CCOCC1)OC(=O)c1ccccc1)NCC2` (configuration not stated), the melting point was 144 °C.
`O=C(Nc1nc[nH]n1)c1ccc(-c2ccc3nnn(Cc4ccc5ncccc5c4)c3n2)cc1Cl` came in with a melting point of 286 to 288 °C.
Then `CCCc1nc2c(N)nc3ccccc3c2n1CC1(O)CCSCC1`, with 243 to 244 °C; and `CC(C)Oc1ccccc1C1(OC(=O)N2CCN(c3ccncc3)CC2)C(=O)Nc2ccc(Cl)cc21` (configuration not stated), with 196 to 198 °C; and `O=C(CBr)Nc1cccc(F)c1C(=O)O`, with 169 to 170 °C.
Turning to `CN(C)Cc1ccc(CSCCNC2=NS(=O)(=O)N=C2N2CCOCC2)o1`, the melting point was in the range of 122 to 127 °C.
In the case of `O=C1COc2ccc(C3=C(c4ccc(Cl)cc4Cl)C(=O)OC3)cc2N1`, the melting point lay in the range of 233 to 234 °C.
Consider `O=S(=O)(Cl)c1c(Cl)sc(Cl)c1Cl`, for which the melting point came out at 55 °C.
Then `CCCOCc1nc2nccnc2c(=O)[nH]1`, with 158 to 160 °C; and `CCn1c(=O)c2c(nc(/C=C/c3cc(OC)c(OC(=O)c4ccccc4)c(OC)c3)n2C)n(CC)c1=O`, with 196 °C; and `O=C1N=c2cc(O)c(O)c(O)c2=NC1=O`, with above 350 °C.
For the molecule `CC(C)n1nc(-c2sc(N)nc2-c2cccc(Cl)c2)ccc1=O`, the melting point fell in the range of 236 to 237 °C.
`COc1cc(CCCN2CCc3cc(OC)c(OC)cc3C2)ccc1NC(=O)c1cccc2c(=O)c3cccc(C)c3[nH]c12` had a melting point of 174 °C.
The figure for `COc1ccc(C2(CCCCl)S(=O)CCCS2=O)cc1OC` (configuration not stated) is 163 to 164 °C; for `Cn1nc(-c2ccccc2)c(CC(=O)O)c1-c1ccccc1` it is 170 to 172 °C.
Then `CCOC(=O)c1ccc(OCCC2CCN(c3cc(Cl)nnc3Cl)CC2)cc1`, with 153 to 155 °C.
The figure for `COC=C(C(=O)OC)N(C)c1cc(-c2cccc(OC)c2)ncn1` is 87 to 90 °C.
As to `CCCCc1cc2cc(C(=O)NOCc3ccccc3)ccn2c1C(=O)c1ccc(OCCCN(CCCC)CCCC)cc1`, the melting point lay within 118 to 119 °C.
For `CCc1noc(-c2ncn(-c3cccc(Oc4ccc(Cl)cc4)c3)c2COC)n1`, the melting point was 68 to 70 °C.
`COC(=O)c1c(C)nc2c(c1N(C)C)c1ccccc1n2C` yielded a melting point of 106 to 108 °C.
Then `O=C1CCC(N2C(=O)c3cccc(OCc4cc5ccccc5s4)c3C2=O)C(=O)N1` (configuration not stated), with 247 to 249 °C; and `CCC(CC)Oc1ccc(/C=C/C(=O)Nc2ccccc2C(=O)O)cc1OC`, with 82 to 85 °C; and `Nc1ccccc1NC(=O)c1cc2cccc(OCC(=O)O)c2o1`, with 208 to 210 °C.
In turn, `CCCCC1NC(C(=O)OC)Cc2c1[nH]c1ccccc21` (configuration not stated) registered a melting point of 102 to 103 °C.
As for `CC(C)(C)c1ccc(C(=O)NCc2ccc3c(c2)C(=O)N(C2CCC(=O)NC2=O)C3=O)cc1` (configuration not stated), the melting point lay within 164 to 166 °C.
Then `Cc1cc(C)cc(-c2nc(NC(=O)C3CCCC3)sc2-c2ccncc2)c1`, with 275 to 278 °C; and `CCC(CC)CC(=O)C1=C(O)c2cc(OC)c(OC)c(OC)c2C(O)(c2ccc(OC)c(OC)c2)C1C(=O)OC` (configuration not stated), with 132 to 133 °C.
The figure for `CCOC(=O)c1cc(NCc2c(C)cccc2C)c2nc(C)n(C)c2c1` is 190 °C; for `CC(C)Oc1nc(N)nc2c1ncn2CCC(CO)CO` it is 112 to 114 °C; for `COc1cc(COc2ccc3nc(NC(=O)Oc4ccccc4)cn3n2)cc(OC)c1OC` it is 210 to 213 °C.
The figure for `CC(=O)NCC1CN(Cc2ccccc2)CCO1` (configuration not stated) is 110 to 111 °C; for `CNC(=O)COc1cccc(CCNC(=O)/C=C/c2cccnc2)c1` it is 140 to 141 °C; for `CCCCC#CCCOc1cc(C=O)ccc1OC` it is 42 to 43 °C.
`Cc1cc(C2=NOC(c3cc(Cl)cc(Cl)c3)(C(F)(F)F)C2)ccc1C(=O)NCO` (configuration not stated) gave a melting point of 69 to 73.5 °C.
`Clc1cc2cc[nH]c2c2cccnc12` yielded a melting point of 248 to 250 °C.
For the molecule `Cc1ccc(F)cc1C(=O)Nc1ccc(C(=O)N2Cc3cccn3Cc3ccccc32)c(Cl)c1`, the melting point is 191 to 195 °C.
As for `CC(=O)N1C(SCc2ccccc2N(C)C)=NC(=O)C1(C)C`, the melting point is 99 to 100 °C.
Take `COC(=O)c1cc(C(C)=O)c(C)nc1C1=NC(C)(C(C)C)C(=O)N1` (configuration not stated): the melting point lay within 118 to 120 °C.
Molecule `CC(=O)OC1CC(C)(C)N(OC(=NC2CCCCC2)N(C(C)=O)C2CCCCC2)C(C)(C)C1` gave a melting point of 125 to 130 °C.
Then `CSc1nn2c(NCCN(C)C)cc(C)nc2c1S(=O)(=O)c1ccccc1`, with 190 to 191 °C; and `Cn1c(C(F)(F)F)cc(=O)n(-c2c(F)cc(Cl)c3cc(-c4ccccc4)oc23)c1=O`, with 215 to 216 °C; and `CCOC(=O)c1c(CCCn2ccnc2)nc2cc(OC)c(OC)cc2c1-c1ccc(OC)c(OC)c1`, with 164 to 165 °C.
Then `CCC(=O)NNC(=O)NCCOc1ccccc1`, with 178 to 183 °C; and `CCOC(=O)c1cn(C(=O)c2ccccc2)c2sc(-c3ccc(OC)cc3)c(CBr)c2c1=O`, with 124 to 126 °C; and `CCOC(=O)C(=O)Nc1cc(OC)cc(NC(=O)C(=O)OCC)n1`, with 155 to 156 °C.
The figure for `CC1OC(n2c(Br)nc3cc(Cl)c(Cl)cc32)C(O)C1O` (configuration not stated) is 85 to 86 °C; for `CNC(=S)Nc1cc(OC)c(-c2ccc(C[C@H](NC(=O)c3c(Cl)cccc3Cl)C(=O)O)cc2)c(OC)c1` it is 197 to 198 °C; for `COC(=O)C(C)(Cc1c[nH]c2ccc(OC)cc12)[N+](=O)[O-]` (racemic) it is 109 to 110 °C.
Turning to `O=c1ccc(-c2c(-c3ccccc3)nn3ccccc23)nn1[C@H]1CC[C@@H](C(=O)O)CC1`, the melting point was in the range of 193 to 195 °C.
For `CC1(C(=O)CC#N)CC1`, the melting point fell in the range of 32 to 33 °C.
`Cc1cc(C)c(S(=O)(=O)NC(CN2CCCc3cc(C)ccc32)C(F)(F)F)c(C)c1` (configuration not stated) returned a melting point of 143 to 144 °C.
The figure for `Nc1ccc(OCc2ccccc2)cc1[N+](=O)[O-]` is 139 to 141 °C; for `CCCc1c(OCCCOc2ccc3c(c2CCC)OC(CCC(=O)OC)CC3=O)ccc(C(C)=O)c1O` (configuration not stated) it is 101 to 102 °C; for `COC(=O)c1ccc2c(c1)Sc1ccccc1N=C2` it is 104 to 110 °C.
For the molecule `CC(=O)N1CCN(Cc2cc(C)c(O)c(C)c2)CC1`, the melting point lay within 150 to 151 °C.
`CCn1c(=O)c2conc2n(C)c1=O` returned a melting point of 87 to 88 °C.
Regarding `COc1cc(C2C3=C(COC3=O)Nc3ccc4ncsc4c32)ccc1O` (configuration not stated), the melting point lay in the range of 296 to 297 °C.
Molecule `CCOC(=O)C1=C(C)NC(c2ccccc2)=NC1c1ccccc1[N+](=O)[O-]` (configuration not stated) yielded a melting point of 102 to 105 °C.
The figure for `C#CCNC1CCc2ccc([N+](=O)[O-])cc21` (configuration not stated) is 37 to 39 °C; for `O=[N+]([O-])c1cc2nc(O)c(O)nc2c2c([N+](=O)[O-])cccc12` it is above 300 °C.
`COC(=O)c1cc(-c2ccc(S(C)(=O)=O)cc2)n(C2CCCCC2)n1` displayed a melting point of 108 °C.
The molecule `CNC(=O)C(Cc1ccc(OC)cc1)NC(=O)CC(S)C(CC(C)C)C(N)=O` (configuration not stated) had a melting point of 221 to 225 °C.
The figure for `CC(C)(O)c1ccc(CNC(=O)c2cccnc2Oc2ccc(F)cc2)cc1` is 106 to 108 °C; for `CCOC(=O)C1=C(C)NC(C)=C(C(=O)OCC)C1c1ccc(OC(C)(C)C(=O)OCC)cc1` it is 215 °C; for `O=C(O)c1ccccc1OCCN1CCC(c2cn(CC3CC3)c3ccccc23)CC1` it is 145 to 147 °C.
For `NS(=O)(=O)c1ccc(NS(=O)(=O)/C=C/c2ccccc2)cc1`, the melting point fell in the range of 171 to 173 °C.
As for `CCN1CC(=O)N(c2cc(Cl)ccc2C)C1=S`, the melting point was 152 to 154 °C.
Molecule `CCCc1c(OCCCCC(=O)c2ccc3cc(OC)c(OC)cc3c2)ccc(C(=O)O)c1O` had a melting point of 177 to 178 °C.
`CC(=O)N(C)CC(=O)c1ccc2c(c1)OCO2` displayed a melting point of 99 to 101 °C.
Molecule `O=C(NC(=O)C(c1ccccc1)c1ccccc1)OCC(F)(F)F` registered a melting point of 125 to 127 °C.
On to `CC(=O)NCc1c(C)cc(CN2CCN(c3ccccc3)CC2)cc1C`, for which the melting point lay within 159 to 160 °C.
Molecule `COc1ccccc1-n1c(=O)[nH]c2c(C(N)=O)nc(-c3ccncc3)nc21` registered a melting point of 318 to 320 °C.
Molecule `Cc1cc2nc(-c3cccnc3N)n(-c3ccc(CC(=O)Nc4ccc5ncccc5c4)cc3)c2nc1-c1cccnc1` came in with a melting point of 176 to 178 °C.
The figure for `COc1ccc(Cn2c(=O)oc(=O)c3cc(Cl)cnc32)cc1` is 173 °C; for `COc1ccc(C(=O)c2cc3ccccc3o2)cc1` it is 93 to 94 °C.
Regarding `CC(C)(Oc1ccc(C#N)cc1Cl)c1ccccc1`, the melting point lay in the range of 60 to 62 °C.
